Results: patent US20040097543A1, “Use of cyclic 2,4-diphosphoclycerates (cdgp) and/or derivatives thereof in cosmetic and dermatological formulations” (priority 2000, published 2004)

Tests used:
[1] = Stability properties (chemical, physical, pH, light); format: physicochemical
Solubility in water = format: physicochemical
Half-life (hydrolysis) = format: physicochemical; conditions: T = 120° C.
enzymes = experiment: Protection against thermally induced denaturation of enzymes; format: biochemical; conditions: in comparison with a number of other compatible solutes far and decidedly better
LDH = experiment: Stabilization when freezing protein solutions (LDH); format: biochemical

In the case of O=C(O)[C@H]1COP(=O)(O)OP(=O)(O)O1 [Cyclic diphosphoglycerate, cyclic diphosphoglycerate], the “chemical and physical stability” value [1] is reported as “High”, the solubility in water (Solubility in water) is reported as “Excellent” and the half-life (Half-life (hydrolysis)) is reported as 150 h. The “protective effect in respect of the thermally induced denaturation of enzymes” value (enzymes) was “excellent” and the “stabilizing properties when freezing protein solutions (LDH)” value (LDH) was “good stabilizing properties”.
